Data on ten molecules can be found in article PMC8040968, “Identification of small molecule allosteric modulators of 5,10-methylenetetrahydrofolate reductase (MTHFR) by targeting its unique regulatory domain” (Biochimie, 2021).

Values joined by “and” are separate entries in the source; they are usually repeats but may differ in a detail not shown here. Equal entries are not always repeated. Where two headings read alike, the source gives them in different places.

Data set [1] concerns the target T1, hsMTHFRCD-RD (Homo sapiens, UniProt P42898).
T1 construct: encompassing just the CD and RD (amino acids 38–644; hsMTHFRCD-RD); made in house
The experiment in a line: MIDAS protein-metabolite interactomics (equilibrium dialysis FIA-MS), CD-RD construct. The format is binding. The note with it: Fig. 2B. The method, then: (§1) Protein–metabolite interactomics using an updated MIDAS screening platform was performed as reported previously. Briefly, a flow-injection analysis mass-spectrometry (FIA-MS) method utilising a validated library of 400 metabolite standards was combined into four unique and defined screening pools in 150 mM ammonium acetate pH 7.4. For each metabolite pool, 8 μl of hsMTHFRCD-RD (542 μM) or hsMTHFRRD (240 μM) protein was arrayed in triplicate across a SWISSCI 10 MWC 96-well microdialysis plate (protein chambers). To the trans side of each dialysis well, 300 μl of a metabolite pool (50 μM per metabolite) was arrayed in triplicate for each target protein (metabolite chambers). Dialysis plates were placed in the dark at 4 °C on a rotating shaker (150 rev min−1) and incubated for 40 h. Post-dialysis, protein- and metabolite-chamber dialysates were normalized and diluted 1:10 in 80% methanol, incubated for 30 min on ice, and centrifuged at 3200 RCF for 15 min to remove precipitated protein. Metabolite pool analytes were arrayed across a 384-well microvolume plate and placed at 4 °C in a Shimadzu SIL-20ACXR autosampler for FIA-MS metabolomics analysis. 2 μl of each sample was analysed in technical triplicate by FIA-MS on a SCIEX X500R QTOF MS with interspersed injections of blanks.
FIA-MS spectra from MIDAS protein–metabolite interactomics was qualitatively and quantitatively processed in SCIEX OS 1.6 software to determine relative metabolite abundance by integrating the mean area under the extracted-ion chromatogram curve across technical triplicates. Log2 (fold change) for each metabolite was calculated from the relative metabolite abundance in the protein chamber (numerator) and metabolite chamber (denominator) from dialysis triplicates. For each technical triplicate, up to one outlier was removed using a z-score cutoff of five (<0.1% of observations). The corrected technical replicates were collapsed to one mean fold-change summary per protein–metabolite pair. To remove fold-change variation that was not specific to a given metabolite–protein pair, the first three principal components of the total MIDAS dataset were removed (∼75% of observed variance) creating Log2 (corrected fold change). Protein–metabolite z-scores were determined by comparing the target protein–metabolite Log2 (corrected fold change) to a no-signal model for that metabolite using measures of the central tendency (median) and standard deviation (extrapolated from the 25–75% quantiles) which are not biased by the signals in the tails of a metabolite’s fold-change distribution. Z-scores were controlled for false-discovery rate using Storey’s q value (http://github.com/jdstorey/qvalue). Protein–metabolite interactions with p-values < 0.05 and q-values < 0.1 were considered significant.
(In general: In equilibrium dialysis free small molecules cross a membrane that holds back macromolecules.)

Data set [2] has as its target T2, hsMTHFRRD (Homo sapiens, UniProt P42898).
T2 construct: encompassing the RD and part of the linker region (amino acids 348–656; hsMTHFRRD); made in house
T2 sequence (P42898 348-656): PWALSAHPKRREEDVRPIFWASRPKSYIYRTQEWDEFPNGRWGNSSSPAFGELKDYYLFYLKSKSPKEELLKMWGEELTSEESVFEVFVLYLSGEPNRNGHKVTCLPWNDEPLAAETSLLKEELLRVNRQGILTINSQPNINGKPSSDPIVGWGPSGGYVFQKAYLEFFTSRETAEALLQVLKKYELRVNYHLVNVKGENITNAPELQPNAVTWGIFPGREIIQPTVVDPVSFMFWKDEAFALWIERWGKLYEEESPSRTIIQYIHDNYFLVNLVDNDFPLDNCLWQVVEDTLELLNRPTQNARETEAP
Nature of the data set: Surface plasmon resonance, regulatory domain. The format is binding. The note with it: SPR, steady state affinity fit, read-out: Kd (dissociation constant). How it is done: (§2) For determination of the affinity between hsMTHFRCD-RD and (S)-SKI-72, 30 μg of hsMTHFRCD-RD was immobilized onto Sensor Chip CM5 sensor (series S) to a density of 7500 RU via the protein –NH2 groups employing 1-Ethyl-3-(3-dimethylaminoproppyl)carbodiimide crosslinker (EDC) and N-hydroxysuccinimide (NHS) in acetate buffer pH 4.0. For the binding experiment, (S)-SKI-72 was serially diluted (1:1) from 6.25 μM to 0.05 μM in 20 mM HEPES pH 7.5, 150 mM NaCl, 0.5 mM TCEP, 0.05% TWEEN-20, 5% DMSO and subsequently injected at a 30 μL/min flow rate over the sensor. […] For the binding experiment, (S)-SKI-72 was serially diluted from 12.5 μM to 0.012 μM and AdoMet was serially diluted from 25 μM to 0.19 μM and subsequently injected at a 30 μL/min flow rate over the sensor. Data were analysed using the Biacore S200 Evaluation Software.

On the set-up of data set [3]: method as in PMID 31657716. The settings on record: cited from earlier work.
Data set [4] has as its target T3, hsMTHFRFL (Homo sapiens, UniProt P42898).
T3 construct: encompassing the full-length (amino acids 1–656; hsMTHFRFL); made in house
The experiment in a line: MTHFR enzyme activity assay (physiological forward assay), purified enzyme. The format is biochemical. The note with it: for Ki: four-parameter curve fit, n = 3. The method, then:
(§3) All enzymatic assays were performed using the physiological forward assay described by Suormala et al.. For (S)-SKI-72 inhibition in […] (ATCC: CRL-3216) cell lysates, the assay was performed with the modifications described by Rummel et al. and Burda et al.. For (S)-SKI-73 inhibition of intact HEK293 cells, 300,000 cells/well of a 6-well plate were allowed to settle overnight. The next day, media containing Dulbecco’s Modified Eagle Medium (Gibco) supplemented with 10% fetal bovine serum (Gibco) and 1% antibiotic/antimycotic (Gibco) was exchanged to fresh media of the same composition plus the indicated concentration of (S)-SKI-73. Following incubation for 12 or 48 h, cells were harvested, lysed and assayed as previously described. Assay of hsMTHFRFL was performed as described. Purified AdoMet was used for inhibition. Sinefungin was purchased from Sigma-Aldrich (Cat# S8559). The Ki for each compound was estimated following a plot of inhibitor versus response and a four-parameter curve fit as performed by GraphPad Prism (v8.00).

Data set [5] has as its target T1, hsMTHFRCD-RD. Nature of the data set: Surface plasmon resonance, CD-RD construct. It is filed as binding. The note with it: SPR, read-out: Kd (dissociation constant). How it is done:
as §2
In general terms: In SPR one partner is held on a chip, and binding of the other changes the refractive index at the surface.

The target of data set [6] is T2, hsMTHFRRD. The experiment in a line: Differential scanning fluorimetry binding assay. The note with it: up to 250 μM compound, 0.1 mg ml^−1 hsMTHFRRD. The method, then:
Differential scanning fluorimetry was used to assay shifts in melting temperature caused by ligand binding in a 96-well PCR plate using an LC480 light cyler (Roche). Each well (20 μl) consisted of hsMTHFRRD protein (0.1 mg ml^−1), SYPRO-Orange (Invitrogen) diluted 1000X, and buffer (10 mM HEPES pH 7.5, 500 mM NaCl) in the presence of 0–250 μM AdoMet, AdoHcy or analogue compounds. Analogue compounds were part of a AdoMet library consisting of 162 synthetic analogues of adenosine scaffolds which were compiled from the SGC’s compound collection.
(DSF heats the sample and reads unfolding from a dye or from intrinsic fluorescence.)

For data set [7], the target named is T4, endogenous MTHFR from HEK293 cell lysate (Homo sapiens, UniProt P42898).
T4 construct: Remaining activity of endogenous MTHFR from HEK293 cell lysate; host or cells: HEK293
T4 sequence (P42898 whole entry): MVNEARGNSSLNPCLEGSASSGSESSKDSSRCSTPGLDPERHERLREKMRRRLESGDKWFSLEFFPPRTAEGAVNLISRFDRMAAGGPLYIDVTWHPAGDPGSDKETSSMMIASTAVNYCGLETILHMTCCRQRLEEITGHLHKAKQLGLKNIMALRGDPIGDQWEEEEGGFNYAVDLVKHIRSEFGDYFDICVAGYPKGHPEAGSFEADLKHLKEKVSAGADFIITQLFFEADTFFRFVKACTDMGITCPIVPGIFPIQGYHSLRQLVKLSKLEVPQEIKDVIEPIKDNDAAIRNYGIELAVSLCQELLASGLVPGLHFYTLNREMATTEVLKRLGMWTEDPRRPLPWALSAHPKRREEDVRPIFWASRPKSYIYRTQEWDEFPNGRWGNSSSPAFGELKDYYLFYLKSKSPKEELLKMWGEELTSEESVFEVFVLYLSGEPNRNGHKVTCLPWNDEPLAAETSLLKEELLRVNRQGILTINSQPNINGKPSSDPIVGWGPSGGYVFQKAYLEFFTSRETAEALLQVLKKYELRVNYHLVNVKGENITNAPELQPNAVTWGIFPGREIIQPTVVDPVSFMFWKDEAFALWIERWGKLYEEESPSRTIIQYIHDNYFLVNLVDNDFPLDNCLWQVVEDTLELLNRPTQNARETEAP
Nature of the data set: MTHFR enzyme activity assay in HEK293 cell lysate. It is filed as biochemical. The settings on record: for Ki: n = 3. The method, then:
as §3

Data set [8] deals with T2, hsMTHFRRD. The experiment in a line: MIDAS protein-metabolite interactomics (equilibrium dialysis FIA-MS), regulatory domain alone. The settings on record: Fig. 2C. The format is binding. How it is done:
as §1, with “Post-dialysis, protein- and metabolite-chamber dialysates were normalized and diluted 1:10 in 80% methanol, incubated for 30 min on ice, and centrifuged at 3200 RCF for 15 min to remove precipitated protein. Metabolite pool analytes were arrayed across a 384-well microvolume plate and placed at 4 °C in a Shimadzu SIL-20ACXR autosampler for FIA-MS metabolomics analysis.” left out
FIA-MS spectra from MIDAS protein–metabolite interactomics was qualitatively and quantitatively processed in SCIEX OS 1.6 software to determine relative metabolite abundance by integrating the mean area under the extracted-ion chromatogram curve across technical triplicates. Log2 (fold change) for each metabolite was calculated from the relative metabolite abundance in the protein chamber (numerator) and metabolite chamber (denominator) from dialysis triplicates. […]

T3 sequence (P42898 whole entry, the tested form may be a part): as the sequence (P42898 whole entry) above
T1 sequence (P42898 38-644): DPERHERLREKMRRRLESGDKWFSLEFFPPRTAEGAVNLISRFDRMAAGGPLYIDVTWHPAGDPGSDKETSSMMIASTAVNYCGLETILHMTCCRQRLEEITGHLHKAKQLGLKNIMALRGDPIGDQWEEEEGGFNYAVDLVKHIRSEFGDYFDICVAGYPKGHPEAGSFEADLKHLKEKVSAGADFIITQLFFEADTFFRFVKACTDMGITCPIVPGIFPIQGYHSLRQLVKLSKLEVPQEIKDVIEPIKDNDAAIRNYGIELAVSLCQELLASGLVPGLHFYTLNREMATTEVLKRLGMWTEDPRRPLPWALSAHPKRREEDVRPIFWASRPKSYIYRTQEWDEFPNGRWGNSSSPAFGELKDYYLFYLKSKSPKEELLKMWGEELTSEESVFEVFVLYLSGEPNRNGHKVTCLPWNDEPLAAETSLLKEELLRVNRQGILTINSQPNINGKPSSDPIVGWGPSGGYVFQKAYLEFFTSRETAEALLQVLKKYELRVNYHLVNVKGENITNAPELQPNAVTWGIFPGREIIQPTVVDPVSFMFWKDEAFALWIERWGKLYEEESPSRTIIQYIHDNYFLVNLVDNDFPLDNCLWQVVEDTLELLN

As to `Nc1nc2c(c(=O)[nH]1)N(C=O)C(CNc1ccc(C(=O)N[C@@H](CCC(=O)O)C(=O)O)cc1)CN2` (stereo partly shown) [5-FTHF, 5-formyltetrahydrofolate], in data set [1], the “MIDAS enrichment or depletion of metabolite” value (“MIDAS enrichment or depletion” below) is “enriched”.
For the molecule `CN1c2c(nc(N)[nH]c2=O)NCC1CNc1ccc(C(=O)N[C@@H](CCC(=O)O)C(=O)O)cc1` (stereo partly shown) [5-MTHF, 5-methyltetrahydrofolate], in data set [1], the “MIDAS enrichment or depletion” value is reported as “depleted”.
Usually Kd stands for the concentration at which binding is half-saturated. Usually residual activity stands for what remains of the control signal, in per cent. The Ki is a dissociation constant, usually derived from enzyme kinetics or from competition with a known ligand. Read a high Ki as lower affinity. In the case of `COc1ccc(CCNC(=O)[C@@H](N)CC[C@H](CNCc2ccccc2)C[C@H]2O[C@@H](n3cnc4c(N)ncnc43)[C@H](O)[C@@H]2O)cc1` [(S)-SKI-72], the Kd was 1470 nM and 1170 nM and 1500 nM in data set [2]; 600 nM in data set [5] (as printed in Fig. 3A); 612 nM and 596 nM in data set [5] (steady state affinity fit). In data set [3], the membrane permeability entry is reported as “poor”. Moreover, in data set [4] (purified hsMTHFRFL, even at high concentrations), the “residual activity at high concentrations” value is around 30%. Moreover, the Ki in data set [4] (purified hsMTHFRFL) came out at 780 ± 50 nM; in data set [7] it was 3000 ± 200 nM. Besides, the Tm shift result in data set [6] is “approximately 10 °C”. For the same molecule, the “residual activity at the highest concentrations tested” value in data set [7] is given as “approximately 50%”.
With `Nc1ncnc2c1ncn2[C@@H]1O[C@H](CSCC[C@H](N)C(=O)O)[C@@H](O)[C@H]1O` [AdoHcy, S-adenosylhomocysteine], the “MIDAS enrichment or depletion” value in data set [1] and in data set [8] was “enriched” throughout. Besides, the Tm shift in data set [6] was around 7 °C.
Consider `C[S+](CC[C@H](N)C(=O)[O-])C[C@H]1O[C@@H](n2cnc3c(N)ncnc32)[C@H](O)[C@@H]1O` (stereo partly shown) [AdoMet, S-adenosylmethionine], for which the Kd in data set [2] was 4300 nM and 1060 nM. The Ki in data set [4] (purified hsMTHFRFL) was 5800 ± 200 nM; in data set [7], 8200 nM and 6800 nM. Also, the “MIDAS enrichment or depletion” value in data set [1] and in data set [8] was “enriched” in each case. In addition, in data set [6], the Tm shift entry was “approximately 4 °C”.
For the molecule `Cc1cc2nc3c(=O)[nH]c(=O)nc-3n(C[C@H](O)[C@H](O)[C@H](O)COP(=O)(O)OP(=O)(O)OC[C@H]3O[C@@H](n4cnc5c(N)ncnc54)[C@H](O)[C@@H]3O)c2cc1C` [FAD, flavin adenine dinucleotide], the “MIDAS enrichment or depletion” value in data set [1] is “enriched”.
Regarding `NC(=O)C1=CN([C@@H]2O[C@H](COP(=O)(O)OP(=O)(O)OC[C@H]3O[C@@H](n4cnc5c(N)ncnc54)[C@H](O)[C@@H]3O)[C@@H](O)[C@H]2O)C=CC1` [NADH], the “MIDAS enrichment or depletion” value in data set [1] is on record as “depleted”.
On to `NC(=O)C1=CN([C@@H]2O[C@H](COP(=O)(O)OP(=O)(O)OC[C@H]3O[C@@H](n4cnc5c(N)ncnc54)[C@H](OP(=O)(O)O)[C@@H]3O)[C@@H](O)[C@H]2O)C=CC1` [NADPH], for which the “MIDAS enrichment or depletion” value in data set [1] is “depleted”.
In the case of `Nc1ncnc2c1ncn2[C@@H]1O[C@H](C[C@@H](N)CC[C@H](N)C(=O)O)[C@@H](O)[C@H]1O` [Sinefungin, sinefungin], the “effect on the activity of hsMTHFRFL” value in data set [4] (concentrations up to ∼100 μM, above that appeared to inhibit) is on record as “no effect”.
Take `Nc1nc(=O)c2nc(CNc3ccc(C(=O)N[C@@H](CCC(=O)O)C(=O)O)cc3)cnc2[nH]1` [folate]: the “MIDAS enrichment or depletion” value in data set [1] is listed as “enriched”.
